Tests used:
[1] = molecular target: T1, Osm1 (Saccharomyces cerevisiae, UniProt P21375); assay: X-ray crystal structure, […] Å; format: binding
T1 construct: residues 32-501, N-terminal His6 tag and thrombin site in pET28a, E. coli BL21(DE3); tag removed by trypsin for crystals

[2] = molecular target: T2, Osm1 (Saccharomyces cerevisiae, UniProt P21375, S78K/P162R); assay: isothermal titration calorimetry; details: second FAD-binding pocket; 1 mM FAD injected into 28 µM double mutant
T2 construct: residues 32-501, N-terminal His6 tag and thrombin site in pET28a, E. coli BL21(DE3); tag removed by trypsin for crystals
T2 sequence (P21375 32-501 S78K/P162R): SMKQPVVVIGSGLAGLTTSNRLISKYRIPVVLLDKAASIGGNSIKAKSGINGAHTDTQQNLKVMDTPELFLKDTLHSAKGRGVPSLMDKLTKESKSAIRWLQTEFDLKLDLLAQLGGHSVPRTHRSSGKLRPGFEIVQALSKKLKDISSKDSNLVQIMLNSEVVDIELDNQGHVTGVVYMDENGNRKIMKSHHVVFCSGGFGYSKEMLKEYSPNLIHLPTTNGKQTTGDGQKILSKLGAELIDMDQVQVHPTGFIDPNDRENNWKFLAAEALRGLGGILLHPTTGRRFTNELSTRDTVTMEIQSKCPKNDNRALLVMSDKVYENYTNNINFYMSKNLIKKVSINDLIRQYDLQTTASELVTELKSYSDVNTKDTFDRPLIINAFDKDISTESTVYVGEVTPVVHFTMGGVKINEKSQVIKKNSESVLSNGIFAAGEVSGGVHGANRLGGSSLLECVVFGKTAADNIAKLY

[3] = molecular target: T3, Ero1 (Saccharomyces cerevisiae, UniProt Q03103); assay: free flavin reduction at […] nm; format: biochemical; details: free FAD as electron acceptor; DTT and thioredoxin as reductant, airtight, oxygen-depleted
T3 construct: residues 56-424, His6-MBP fusion from E. coli Origami B(DE3), H6-MBP cleaved off by TEV protease; FAD-containing
T3 sequence (Q03103 56-424): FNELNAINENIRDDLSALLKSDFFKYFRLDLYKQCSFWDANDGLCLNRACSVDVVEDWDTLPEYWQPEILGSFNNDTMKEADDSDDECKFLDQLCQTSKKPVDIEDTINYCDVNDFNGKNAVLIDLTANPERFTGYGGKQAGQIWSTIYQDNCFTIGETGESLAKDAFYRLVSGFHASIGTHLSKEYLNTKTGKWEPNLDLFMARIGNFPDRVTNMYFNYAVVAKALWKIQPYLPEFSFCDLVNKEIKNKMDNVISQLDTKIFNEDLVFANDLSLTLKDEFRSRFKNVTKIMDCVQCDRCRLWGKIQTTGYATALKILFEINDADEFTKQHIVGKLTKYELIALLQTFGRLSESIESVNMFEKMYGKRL

[4] = molecular target: T1, Osm1; assay: isothermal titration calorimetry; format: binding
From the text: isothermal titration calorimetry on Osm1 | Injection of FAD into the ITC sample cell containing holo-Osm1 created an exothermic response

T1 sequence (P21375 32-501): as the sequence (P21375 32-501 S78K/P162R) above, with K47S, R131P counted along it

| Kd [4] [µM] | SMILES | X-ray crystal structure, 1.8 Å ([1]; active site next to the isoalloxazine ring of cofactor FAD) | no detectable thermal response [2] | X-ray crystal structure, 1.8 Å ([1]; first (cofactor) site, non-covalent, complex with fumarate) | free flavin reduction at 450 nm [3] |
| --- | --- | --- | --- | --- | --- |
| – | O=C(O)/C=C/C(=O)O [fumarate] | S78, S79, H281, R326, H435, R477, and G480 from Osm1 are involved in the binding of fumarate | – | – | – |
| 4.92 | Cc1cc2nc3c(=O)[nH]c(=O)nc-3n(C[C@H](O)[C@H](O)[C@H](O)COP(=O)(O)OP(=O)(O)OC[C@H]3O[C@@H](n4cnc5c(N)ncnc54)[C@H](O)[C@@H]3O)c2cc1C [FAD] | – | injection of FAD into the S78K/P162R mutant did not show any detectable thermal response | residues, including A45, K66, N73, S74, S79, G80, V194, D260, E467, S482, and L483 | Ero1 could only use free FAD, but not FMN or riboflavin, under oxygen-depleted conditions |

Source: paper PMC6242907, “Molecular basis of maintaining an oxidizing environment under anaerobiosis by soluble fumarate reductase” (Nature Communications, 2018)
